Active and inactive are the calls of the source.
Tests used:
[1] = Luminescence Cell-Based Dose Response HTS to Identify Activators of Luciferase Translation or Activity in H4 […] Cells. [Related pubchem assays: 1829 (Project Summary), 1814 (Primary HTS)]; type: functional
[2] = biological target: T1, Heat shock factor protein 1 (Mus musculus, UniProt P38532); assay: decrease of HSF1-responsive luciferase luminescence – cell-based, NIH3T3, dose retest, confirmation (AID 2382); type: functional;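 also: NIH3T3 fibroblasts with HSF1-driven luciferase reporter stressed by proteasome inhibitor MG132; luminescence from HSF1-driven luciferase expression after 8 hours of MG132 stress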
T1 sequence (P38532 whole entry): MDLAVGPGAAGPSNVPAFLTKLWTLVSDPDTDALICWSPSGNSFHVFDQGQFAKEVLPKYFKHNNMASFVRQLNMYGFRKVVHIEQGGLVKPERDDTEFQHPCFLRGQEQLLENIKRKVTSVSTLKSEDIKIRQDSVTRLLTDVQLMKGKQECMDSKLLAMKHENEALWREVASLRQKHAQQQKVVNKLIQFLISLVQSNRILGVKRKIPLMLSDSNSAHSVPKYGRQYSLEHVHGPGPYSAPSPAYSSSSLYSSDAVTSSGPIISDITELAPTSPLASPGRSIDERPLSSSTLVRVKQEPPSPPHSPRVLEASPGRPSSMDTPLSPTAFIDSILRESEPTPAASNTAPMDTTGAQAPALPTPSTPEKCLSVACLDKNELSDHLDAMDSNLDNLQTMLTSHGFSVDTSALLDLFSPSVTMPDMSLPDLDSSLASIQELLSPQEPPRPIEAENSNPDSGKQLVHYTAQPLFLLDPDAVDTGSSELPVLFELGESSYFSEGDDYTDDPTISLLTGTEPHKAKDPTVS

Cytochrome P450 2C9 = Cytochrome P450 2C9 (Homo sapiens, UniProt P11712)
[3] = viability of uninfected HEp-2 cells – cell-based, HTS, cytotoxicity control for RSV inhibitor project, dose response (AID 2410); type: functional; details: human respiratory syncytial virus
Cytochrome P450 2D6 = Cytochrome P450 2D6 (Homo sapiens, UniProt P10635);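 also: CYP2D6 member of a cytochrome P450 panel assay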
Cytochrome P450 2C19 = Cytochrome P450 2C19 (Homo sapiens, UniProt P33261); assay: Cytochrome panel assay with activity outcomes. Panel member name: p450-cyp2c19 Compounds with AC50 equal or less than 10 uM are considered active; type: functional
cells = type: functional
[4] = NIH-3T3 fibroblast cytotoxicity, dose response, cytotoxicity control, cell-based, fluorescence, Alamar Blue, secondary assay (AID 2327); type: functional;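 also: NIH-3T3 mouse fibroblasts cultured with fluconazole at 8 µg/mL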
[5] = viability of HCT116 lacking mutant beta-catenin – cell-based, human colon tumor, dose response (AID 1045); type: functional;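 also: HCT116 colon tumor cells with beta catenin knocked out; cells exposed to compound for 60 hours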
[6] = viability of PTEN-deleted HCT116 cells – cell-based, HCT116 PTEN knockout, dose response (AID 1047); type: functional;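 also: HCT116 colon tumor cells with PTEN knocked out; cells exposed to compound for 60 hours before readout; potency for loss of cell viability measured by luminescence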
Paired box protein Pax-8 = Paired box protein Pax-8 (Homo sapiens, UniProt Q06710); assay: PAX8 transcriptional activity inhibition in RMG-I – RMG-I cells, luciferase, cherry-pick, dose response (AID 687027); type: functional, cell-based;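 also: luciferase reporter driven by Pax8 target thyroperoxidase promoter measured by SteadyGlo luminescence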
Sequence of Paired box protein Pax-8 (Q06710 whole entry): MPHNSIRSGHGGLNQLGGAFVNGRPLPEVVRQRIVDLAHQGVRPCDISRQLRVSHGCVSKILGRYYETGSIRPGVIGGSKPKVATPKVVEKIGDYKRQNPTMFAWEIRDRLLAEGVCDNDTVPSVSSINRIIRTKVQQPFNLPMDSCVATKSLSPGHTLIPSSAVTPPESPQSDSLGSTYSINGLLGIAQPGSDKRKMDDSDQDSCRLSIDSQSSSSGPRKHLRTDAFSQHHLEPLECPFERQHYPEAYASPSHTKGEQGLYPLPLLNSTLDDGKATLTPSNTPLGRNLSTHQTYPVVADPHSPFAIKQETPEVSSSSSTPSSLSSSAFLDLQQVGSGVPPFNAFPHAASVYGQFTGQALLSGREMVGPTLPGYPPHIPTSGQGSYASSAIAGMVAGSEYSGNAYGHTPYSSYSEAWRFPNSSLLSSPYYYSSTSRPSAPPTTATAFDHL

Sequence of Cytochrome P450 2D6 (P10635 whole entry): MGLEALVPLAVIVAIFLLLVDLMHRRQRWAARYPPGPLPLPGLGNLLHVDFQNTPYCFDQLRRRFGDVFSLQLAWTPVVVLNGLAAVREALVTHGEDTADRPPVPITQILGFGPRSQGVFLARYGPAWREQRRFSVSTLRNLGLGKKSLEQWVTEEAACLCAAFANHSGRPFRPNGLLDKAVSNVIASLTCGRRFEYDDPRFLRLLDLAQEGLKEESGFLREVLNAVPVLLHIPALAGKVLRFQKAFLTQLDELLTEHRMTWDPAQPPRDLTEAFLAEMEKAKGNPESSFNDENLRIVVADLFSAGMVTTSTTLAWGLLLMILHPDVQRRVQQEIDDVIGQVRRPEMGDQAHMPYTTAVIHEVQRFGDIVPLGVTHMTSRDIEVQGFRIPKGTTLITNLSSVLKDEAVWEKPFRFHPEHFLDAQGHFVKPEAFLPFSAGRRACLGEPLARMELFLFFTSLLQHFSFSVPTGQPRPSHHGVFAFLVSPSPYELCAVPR
Sequence of Cytochrome P450 2C19 (P33261 whole entry): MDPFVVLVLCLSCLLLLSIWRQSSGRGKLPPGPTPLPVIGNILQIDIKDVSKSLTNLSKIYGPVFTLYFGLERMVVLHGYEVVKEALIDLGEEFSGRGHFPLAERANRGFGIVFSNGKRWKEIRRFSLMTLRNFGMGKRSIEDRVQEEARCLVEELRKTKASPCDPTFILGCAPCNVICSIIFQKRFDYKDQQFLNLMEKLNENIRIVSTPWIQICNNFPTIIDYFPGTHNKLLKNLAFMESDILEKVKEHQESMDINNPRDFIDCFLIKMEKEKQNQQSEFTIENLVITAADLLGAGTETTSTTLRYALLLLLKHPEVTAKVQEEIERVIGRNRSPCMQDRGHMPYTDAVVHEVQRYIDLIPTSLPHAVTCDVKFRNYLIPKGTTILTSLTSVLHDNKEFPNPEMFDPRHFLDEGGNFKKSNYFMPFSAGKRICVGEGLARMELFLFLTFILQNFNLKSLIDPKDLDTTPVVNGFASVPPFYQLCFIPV
Sequence of Cytochrome P450 2C9 (P11712 whole entry): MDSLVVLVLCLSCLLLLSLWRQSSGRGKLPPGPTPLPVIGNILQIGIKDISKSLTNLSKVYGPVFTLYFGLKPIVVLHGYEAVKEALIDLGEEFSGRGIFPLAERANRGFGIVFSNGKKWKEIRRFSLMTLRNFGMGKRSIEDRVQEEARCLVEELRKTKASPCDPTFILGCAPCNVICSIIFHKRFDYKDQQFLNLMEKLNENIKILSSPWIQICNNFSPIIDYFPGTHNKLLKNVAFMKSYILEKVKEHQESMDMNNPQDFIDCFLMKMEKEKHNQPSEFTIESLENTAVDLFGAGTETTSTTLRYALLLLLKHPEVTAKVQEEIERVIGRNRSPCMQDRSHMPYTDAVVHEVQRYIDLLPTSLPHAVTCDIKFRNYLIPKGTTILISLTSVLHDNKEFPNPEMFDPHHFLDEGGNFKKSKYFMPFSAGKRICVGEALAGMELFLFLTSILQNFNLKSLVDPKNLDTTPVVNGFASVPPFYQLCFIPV

For `Cc1ccc(OC(=O)c2cccc([N+](=O)[O-])c2)c(-n2nc3ccccc3n2)c1`, the EC50 [1] was 588 nM (active).

With `CC1=CCC2C(=O)N(c3ccc(C)c(Br)c3)C(=O)C2C1` (stereo not drawn) the EC50 [2] was > 195 µM (not active).

In the case of `Nc1c(-c2cccs2)cnn1-c1nc(-c2ccc(F)cc2)cs1`, the EC50 [1] was 304 nM (active) and the AC50 (Cytochrome P450 2C9) was 158 nM (inconclusive).

In the case of `CC1CCCN(C/C=C/c2ccccc2[N+](=O)[O-])C1` (stereo not drawn), the AC50 (Cytochrome P450 2C9) was 200 nM (inconclusive).

In the case of `O=C1CC(N2CC=C(c3ccc(F)cc3)CC2)C(=O)N1c1ccc(F)cc1` (stereo not drawn), the EC50 [2] was > 195 µM (not active).

For `COc1ccc(-c2nc(CSCC(=O)NCCC3=CCCCC3)c(C)o2)cc1OC`, the CC50 [3] was > 50 µM (active).

In the case of `CCC1(C)Cc2c(sc3nnn(CC(=O)Nc4ccc(C)cc4)c(=O)c23)CO1` (stereo not drawn), the AC50 (Cytochrome P450 2D6) was 22.4 µM (inconclusive).

For `COc1ccc(Oc2ncc3ncc(=O)n(Cc4cccs4)c3n2)cc1`, the AC50 (Cytochrome P450 2C19; read-out: AC50) was 25.1 µM (inconclusive) and the AC50 (Cytochrome P450 2D6) was 39.8 µM (inconclusive).

In the case of `N#C/C(=C(\O)Nc1ccccc1)c1nc2ccccc2[nH]1`, the IC50 (cells) was 2.43 µM (active).

With `COc1cccc(-c2cncnc2NCc2cnc(C)cn2)c1` the AC50 (Cytochrome P450 2D6) was 15.8 µM (inconclusive).

In the case of `CCCCCCC/C=C\CCCCCCCCC(=O)O`, the AC50 (Cytochrome P450 2C19; read-out: AC50) was 39.8 µM (inconclusive) and the AC50 (Cytochrome P450 2C9) was 39800 nM (inconclusive).

With `COc1cc(C(=O)OC2C[C@H]3CC[C@@H](C2)N3C)ccc1O` (stereo partly drawn) the AC50 (Cytochrome P450 2D6) was 7.94 µM (inconclusive).

With `COc1c(OC(C)=O)ccc(/C=C/c2ccc3cccc(OC)c3n2)c1[N+](=O)[O-]` the CC50 [3] was > 50 µM (active).

For `CC(C)OC(=O)C(C)Oc1ccc(C(=O)NCCc2ccccc2)cc1` (stereo not drawn), the IC50 (cells) was 10.3 µM (active).

In the case of `Cc1c(C(=O)Nc2ccc3c(c2)OCCO3)cnn1C`, the EC50 [2] was 3.49 µM (active).

In the case of `CC1Cc2ccccc2N1C(=O)COC(=O)c1ccc(S(=O)(=O)N(C)C)cc1` (stereo not drawn), the EC50 [2] was > 195 µM (not active).

In the case of `O=C(OCn1nnc2ccccc2c1=O)c1cccs1`, the IC50 (cells) was 15.6 µM (active).

In the case of `CCNC(=O)COC(=O)c1cc(-c2ccc(OC)cc2)nc2ccccc12`, the AC50 (Cytochrome P450 2C9) was 2510 nM (inconclusive).

With `NC(=O)c1c(NC(=O)c2ccccc2F)sc2c1CCCC2` the EC50 [4] was 25.1 µM (active).

In the case of `COCCCNCC(=O)c1c(N)n(Cc2ccccc2)c(=O)n(C)c1=O`, the AC50 (Cytochrome P450 2C19; read-out: AC50) was 35.5 µM (inconclusive) and the AC50 (Cytochrome P450 2D6) was 14.1 µM (inconclusive).

With `O=C(c1ccncc1)N1CCC2(CCN(Cc3ccccc3)CC2)CC1` the AC50 (Cytochrome P450 2C19) was “inconclusive” and the AC50 (Cytochrome P450 2D6) was 12.6 µM (inconclusive).

For `CSCCC(=O)N1CCCC(CNC(=O)c2ccc(-c3ccccc3)cc2)C1` (stereo not drawn), the IC50 (cells) was 11.6 µM (active).

In the case of `O=C(/C=C/c1ccc(N2CCCCC2)c([N+](=O)[O-])c1)c1ccc(S(=O)(=O)N2CCCC2)cc1`, the EC50 [5] was 3.42 µM (active) and the EC50 [6] was 4.4 µM (active).

With `COc1ccccc1C1NC(=O)CCC1[N+](=O)[O-]` (stereo not drawn) the EC50 [2] was > 195 µM (not active).

In the case of `Cn1c(CCN2CCCC2)nc2cc(NS(=O)(=O)c3ccccc3)ccc21`, the AC50 (Paired box protein Pax-8) was 6.61 µM (active).

In the case of `O=C(CNC(=S)N(CCCN1CCOCC1)Cc1cccs1)NCc1ccccc1Cl`, the EC50 [2] was > 195 µM (not active).

In the case of `O=C(OCc1cc(=O)n2cc(Br)ccc2n1)C1COc2ccccc2O1` (stereo not drawn), the EC50 [2] was > 195 µM (not active).
